Data as given in publication doi:10.1101/2025.11.05.686689v1 (biorxiv, 2025).

Biological target: CAPON (NOS1AP), recombinant, C-terminal His tag (Homo sapiens, UniProt O75052)
Assay: microscale thermophoresis
Format: binding

Chain of CAPON (NOS1AP), recombinant, C-terminal His tag (O75052 whole entry): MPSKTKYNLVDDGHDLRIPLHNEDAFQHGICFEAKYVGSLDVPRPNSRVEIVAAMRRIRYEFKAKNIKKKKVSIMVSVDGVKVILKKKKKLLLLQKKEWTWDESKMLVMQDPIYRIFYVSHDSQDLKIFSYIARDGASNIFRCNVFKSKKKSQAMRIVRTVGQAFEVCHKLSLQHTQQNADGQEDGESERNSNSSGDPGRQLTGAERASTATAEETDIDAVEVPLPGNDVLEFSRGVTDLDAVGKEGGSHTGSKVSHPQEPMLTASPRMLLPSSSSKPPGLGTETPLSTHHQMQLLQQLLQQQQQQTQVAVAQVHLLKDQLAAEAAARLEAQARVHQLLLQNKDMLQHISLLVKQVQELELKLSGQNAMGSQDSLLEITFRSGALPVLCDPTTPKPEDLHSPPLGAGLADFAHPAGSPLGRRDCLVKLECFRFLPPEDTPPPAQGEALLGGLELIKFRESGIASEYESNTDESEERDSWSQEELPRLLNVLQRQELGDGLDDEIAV

Kd: 74 ± 15 µM
SMILES: COc1ccc(NC(=O)c2ccco2)cc1NC(=O)c1cc2ccccc2cc1OC [MA32]
